From ChEMBL document CHEMBL1687904, “Pestaloquinols A and B, isoprenylated epoxyquinols from Pestalotiopsis sp” (J Nat Prod, 2011)

Tested on: HeLa
Assay: Cytotoxicity against human HeLa cells after 48 hrs by MTT assay
Format: functional, cell-based

| Structure (SMILES) | IC50 [nM] |
| --- | --- |
| CCCCC[C@@H]1OC=C2[C@@H]3OC(C)(C)[C@@H](O)C[C@@]34O[C@H]4C(=O)[C@]23[C@H]1[C@H]1C2=C([C@H]4OC(C)(C)[C@@H](O)C[C@@]45O[C@H]5C2=O)[C@@H]3O[C@@H]1CCCCC [PESTALOQUINOL A] | 1630 |
| CCCCC[C@@H]1O[C@@H]2C3=C(C(=O)[C@@H]4O[C@@]45C[C@H](O)C(C)(C)O[C@H]35)[C@H]1[C@H]1[C@H](CCCCC)OC=C3[C@@H]4OC(C)(C)[C@@H](O)C[C@@]45O[C@H]5C(=O)[C@@]312 [PESTALOQUINOL B] | 880 |
